Data set [1] deals with T1, tyrosinase extracted from B16 melanoma cells (Mus musculus, UniProt P11344).
T1 construct: tyrosinase was extracted from B16 melanoma cells and used as an enzyme source; endogenous in cells; host or cells: B16 melanoma cells stimulated with alpha-MSH; cell extract
T1 sequence (P11344 19-533): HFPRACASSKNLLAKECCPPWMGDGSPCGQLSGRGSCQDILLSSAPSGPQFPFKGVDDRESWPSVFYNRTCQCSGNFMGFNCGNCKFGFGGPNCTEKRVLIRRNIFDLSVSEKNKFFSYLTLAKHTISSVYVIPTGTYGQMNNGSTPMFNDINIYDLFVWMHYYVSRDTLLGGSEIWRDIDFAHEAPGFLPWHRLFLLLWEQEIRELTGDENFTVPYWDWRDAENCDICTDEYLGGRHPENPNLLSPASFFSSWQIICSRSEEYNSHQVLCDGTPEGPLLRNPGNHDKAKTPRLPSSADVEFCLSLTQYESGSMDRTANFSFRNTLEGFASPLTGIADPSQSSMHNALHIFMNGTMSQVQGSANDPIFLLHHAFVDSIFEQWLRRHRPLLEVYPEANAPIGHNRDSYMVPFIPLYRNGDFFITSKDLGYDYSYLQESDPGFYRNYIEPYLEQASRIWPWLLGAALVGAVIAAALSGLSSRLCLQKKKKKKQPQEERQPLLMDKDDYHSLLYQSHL
Briefly: Inhibition of tyrosinase activity, L-DOPA oxidation (Example 5). It is filed as biochemical. The following applies: tyrosinase and L-DOPA, 37° C., 1 hour, absorbance 475 nm; vs positive control treated with tyrosinase and L-DOPA; FIG. 7. How it is done:
B16 melanoma cells were aliquoted in a 100 mm culture dish at 2×10^5 cells/dish. After 24 hours, the medium from the 100 mm culture dish was removed and treated with DMEM medium containing 10% FBS and a stimulant (α-MSH). After 48 hours, tyrosinase was extracted from B16 melanoma cells and used as an enzyme source. Using the principle that tyrosinase oxidizes L-DOPA to DOPA chrome and DOPA chrome has absorbance at 475 nm, tyrosinase and L-DOPA were incubated at 37° C. for 1 hour and absorbance was measured at 475 nm at 2 minute intervals, so that the production amount of DOPA chrome according to time was measured. The amount of changing 1 nmole of L-DOPA per minute to DOPA chrome was defined as the amount of tyrosinase activity. The tyrosinase inhibitory effect of Compound 2 was evaluated by comparing the group treated with tyrosinase and L-DOPA in combination as a positive control and the group treated with tyrosinase, L-DOPA and Compound 2 in combination.

The subject of data set [2] is B16 melanoma cells. Briefly: Melanogenesis inhibition upon single or combination treatment with hydroquinone (Example 3). It is filed as cell-based. How it is done:
Using B16 melanoma cells, melanogenesis inhibition and melanosome degradation effect were confirmed upon single or combination treatment with hydroquinone and the compound of the present invention.
B16 melanoma cells were treated alone or in combination with hydroquinone and/or a compound of the present invention for 2 hours under the following conditions.
(i) Compound 2: 1, 3, 10 μM single administration
(ii) Hydroquinone: 1, 3, 10 μM single administration
(iii) Compound 2 (1, 3, 10 μM)+Hydroquinone (5 μM)
Thereafter, α-MSH was treated at a concentration of 100 nM for 76 hours.
After 72 hours, absorbance was measured at 405 nm to quantify the amount of melanin released into the medium, and the inhibition rate was calculated and shown in FIG. 5.

In data set [3] the test system is B16 melanoma cells. Briefly: Cytotoxicity of hydroquinone and Compound 2 by MTT assay (Example 4). It is filed as cell-based. The following applies: treated alone, concentration of 10 μM or less; α-MSH 100 nM 76 hours; absorbance 590 nm; FIG. 6. As to the method:
Using B16 melanoma cells, cytotoxicity was measured by MTT assay when hydroquinone and Compound 2 were treated alone or in combination.
200 μL of B16 melanoma cells were aliquoted in a 96-well plate to 2.7×10^3 cells/well, and then cultured at 37° C., 5% CO2 incubator for 24 hours. B16 melanoma cells were treated with hydroquinone and/or Compound 2 for 2 hours under the same conditions as in Example 3.
Thereafter, α-MSH was treated at a concentration of 100 nM for 76 hours, and absorbance was measured at 590 nm by MTT assay, and the results are shown in FIG. 6.

No end group written: not given here.

In the case of `OC[C@H]1O[C@@H](Oc2ccc(O)cc2)[C@H](O)[C@@H](O)[C@@H]1O` [Arbutin], the “inhibition of tyrosinase activity” value in data set [1] is on record as “inhibited the activity of tyrosinase”.
Turning to `Oc1ccc(O)cc1` [hydroquinone, Benzene-1,4-diol], in the data set on B16 melanoma cells [2] (Mus musculus, B16, single treatment, based on the amount of melanogenesis in the positive control group (α-MSH 100 nM)), the IC50 – broadly, the concentration needed to halve the response being measured – came out at 7.7 µM. The “melanogenesis inhibition and melanosome degradation effect” value in the data set on B16 melanoma cells [2] (treated alone, 1, 3, 10 μM, α-MSH 100 nM, FIG. 5) is on record as “dose-dependently increased”. Moreover, the “cell viability / cytotoxicity (MTT assay)” value with B16 melanoma cells [3] is on record as “no cytotoxicity”.
In the case of “α-melanocyte stimulating hormone (SYSMEHFRWGKPV; ends and bridges not checked; UniProt P01189 138-150, looked up) [α-MSH, agonist that stimulates melanogenesis; used as the stimulant / positive control]”, in the data set with B16 melanoma cells [2] (positive control treated with α-MSH 100 nM), the “increase of the amount of melanin” value worked out at 16.5 times.

These data come from patent US20230018245A1, “Skin Whitening Composition Containing Dihydro-5-Methylfuran-2(3h)-One Derivative” (Epi Biotech Co., Ltd., priority 2019, published 2023).
